Patent US8133911B2, “(R)-4-(heteroaryl) phenylethyl derivatives and pharmaceutical compositions containing them” (Dompe S.p.A, priority 2007, dated 2012)
Read-outs that look alike come from different tables or passages of the source.

Test system: PMNs C5a induced chemotaxis
Experiment: Inhibition of C5a-induced chemotaxis of human PMNs
Assay type: cell-based
Settings: 1 h, read-out: C5a (% inhibition at 10^−8 M)
Method: The compounds prepared in Example 2 were evaluated in vitro for their ability to inhibit chemotaxis of polymorphonucleate leukocytes (hereinafter referred to as PMNs) and monocytes induced by the fractions of the complement C5a and C5a-desArg. For this purpose, to isolate the PMNs from heparinized human blood, taken from healthy adult volunteers, mononucleates were removed by means of sedimentation on dextran (according to the procedure disclosed by W. J. Ming et al., J. Immunol., 138, 1469, 1987) and red blood cells by a hypotonic solution. The cell vitality was calculated by exclusion with Trypan blue, whilst the ratio of the circulating polymorphonucleates was estimated on the cytocentrifugate after staining with Diff Quick.
Human recombinant fractions C5a and C5a-desArg (Sigma) were used as stimulating agents in the chemotaxis experiments, giving practically identical results.
The lyophilized C5a was dissolved in a volume of HBSS containing 0.2% bovin serum albumin BSA so thus to obtain a stock solution having a concentration of 10^−5 M to be diluted in HBSS to a concentration of 10^−9 M, for the chemotaxis assays.
In the chemotaxis experiments, the PMNs were incubated with the compounds of the invention of formula (I) for 15′ at 37° C. in an atmosphere containing 5% CO2. The chemotactic activity of the C5a was evaluated on human circulating polymorphonucleates (PMNs) resuspended in HBSS at a concentration of 1.5×10^6 PMNs per ml. During the chemotaxis assay (according to W. Falket et al., J. Immunol. Methods, 33, 239, 1980) PVP-free filters with a porosity of 5 μm and microchambers suitable for replication were used.
The compounds of Example 2 were evaluated at a concentration ranging between 10^−7 and 10^−10 M; for this purpose they were added, at the same concentration, both to the lower pores and the upper pores of the microchamber. The wells in the lower part contain the solution of C5a or the simple carrier, those in the upper part contain the suspension of PMNs.
Inhibition of C5a-induced chemotactic activity by the individual compounds was evaluated by incubating the microchamber for the chemotaxis for 60 min at 37° C. in an atmosphere containing 5% CO2.

[1] = compound 10^−8 M, human PMNs, C5a 10^−9 M, 60 min at 37° C.

Question: Which inhibition at 0.01 µM [1] does the source give for `C[C@H](c1ccc(Nc2nc(C(F)(F)F)cs2)cc1)c1ncnn1O` [Compound 15, 5-[(1R)-1-(4-{[4-(trifluoromethyl)-1,3-thiazol-2-yl]amino}phenyl)ethyl]-1H-1,2,4-triazol-1-ol] here?
Answer: 43 ± 1%

Question: With `C[C@H](c1ccc(Nc2nc(C(F)(F)F)cs2)cc1)c1nonc1O` [Compound 13, 4-[(1R)-1-(4-{[4-(trifluoromethyl)-1,3-thiazol-2-yl]amino}phenyl)ethyl]-1,2,5-oxadiazol-3-ol] as the compound, how does the inhibition at 0.01 µM [1] read?
Answer: 51 ± 4%

Question: `C[C@H](c1ccc(Nc2nc(C(F)(F)F)cs2)cc1)c1ccnn1O` [Compound 7, 5-[(1R)-1-(4-{[4-(trifluoromethyl)-1,3-thiazol-2-yl]amino}phenyl)ethyl]-1H-pyrazol-1-ol] was tested. Which inhibition at 0.01 µM [1] did it give?
Answer: 38 ± 6%

Question: `Cc1cnn(O)c1[C@H](C)c1ccc(Nc2nc(C(F)(F)F)cs2)cc1` [Compound 8, 4-methyl-5-[(1R)-1-(4-{[4-(trifluoromethyl)-1,3-thiazol-2-yl]amino}phenyl)ethyl]-1H-pyrazol-1-ol] was tested. Which inhibition at 0.01 µM [1] did it give?
Answer: 48 ± 5%

Question: With `Cc1c(O)noc1[C@H](C)c1ccc(Nc2nc(C(F)(F)F)cs2)cc1` [Compound 11, 4-methyl-5-[(1R)-1-(4-{[4-(trifluoromethyl)-1,3-thiazol-2-yl]amino}phenyl)ethyl]isoxazol-3-ol] as the compound, how does the inhibition at 0.01 µM (Homo sapiens) read?
Answer: 45 ± 4%

Question: Which inhibition at 0.01 µM [1] does the source give for `C[C@H](c1ccc(Nc2nc(C(F)(F)F)cs2)cc1)c1nnn[nH]1` [Compound 1, N-{4-[(1R)-1-(1H-tetrazol-5-yl)ethyl]phenyl}-4-(trifluoromethyl)-1,3-thiazol-2-amine] here?
Answer: 60 ± 1%

Question: Which inhibition at 0.01 µM [1] does the source give for `C[C@H](c1ccc(Nc2nc(C(F)(F)F)cs2)cc1)c1cc(O)ns1` [Compound 12, 5-[(1R)-1-(4-{[4-(trifluoromethyl)-1,3-thiazol-2-yl]amino}phenyl)ethyl]isothiazol-3-ol] here?
Answer: 45 ± 3%

Question: With `C[C@H](c1ccc(Nc2nc(C(C)(C)C)cs2)cc1)c1nnn[nH]1` [Compound 3, 4-tert-butyl-N-{4-[(1R)-1-(1H-tetrazol-5-yl)ethyl]phenyl}-1,3-thiazol-2-amine] as the compound, how does the inhibition at 0.01 µM [1] read?
Answer: 42 ± 8%

Question: How did the inhibition at 0.01 µM [1] turn out when `C[C@H](c1ccc(Nc2nc(C(F)(F)F)co2)cc1)c1nnn[nH]1` [Compound 5, N-{4-[(1R)-1-(1H-tetrazol-5-yl)ethyl]phenyl}-4-(trifluoromethyl)-1,3-oxazol-2-amine] was run?
Answer: 55 ± 1%

Question: With `C[C@H](c1ccc(Nc2nccs2)cc1)c1nnn[nH]1` [Compound 4, N-{4-[(1R)-1-(1H-tetrazol-5-yl)ethyl]phenyl}-1,3-thiazol-2-amine] as the compound, how does the inhibition at 0.01 µM [1] read?
Answer: 39 ± 3%

Question: `C[C@H](c1ccc(Nc2nc(C(F)(F)F)cs2)cc1)c1nsnc1O` [Compound 14, 4-[(1R)-1-(4-{[4-(trifluoromethyl)-1,3-thiazol-2-yl]amino}phenyl)ethyl]-1,2,5-thiadiazol-3-ol] was tested. Which inhibition at 0.01 µM [1] did it give?
Answer: 60 ± 9%

Question: With `Cc1coc(Nc2ccc([C@@H](C)c3nnn[nH]3)cc2)n1` [Compound 6, 4-methyl-N-{4-[(1R)-1-(1H-tetrazol-5-yl)ethyl]phenyl}-1,3-oxazol-2-amine] as the compound, how does the inhibition at 0.01 µM [1] read?
Answer: 51 ± 7%

Question: How did the inhibition at 0.01 µM [1] turn out when `Cc1csc(Nc2ccc([C@@H](C)c3nnn[nH]3)cc2)n1` [Compound 2, 4-methyl-N-{4-[(1R)-1-(1H-tetrazol-5-yl)ethyl]phenyl}-1,3-thiazol-2-amine] was run?
Answer: 45 ± 3%

Question: `C[C@H](c1ccc(Nc2nc(C(F)(F)F)cs2)cc1)c1cnnn1O` [Compound 9, 5-[(1R)-1-(4-{[4-(trifluoromethyl)-1,3-thiazol-2-yl]amino}phenyl)ethyl]-1H-1,2,3-triazol-1-ol] was tested. Which inhibition at 0.01 µM [1] did it give?
Answer: 44 ± 1%

Question: Which inhibition at 0.01 µM [1] does the source give for `C[C@H](c1ccc(Nc2nc(C(F)(F)F)cs2)cc1)c1cc(O)no1` [Compound 10, 5-[(1R)-1-(4-{[4-(trifluoromethyl)-1,3-thiazol-2-yl]amino}phenyl)ethyl]isoxazol-3-ol] here?
Answer: 56 ± 1%
